Experimental data from PMC10685318, “Trans-cyclosulfamidate mannose-configured cyclitol allows isoform-dependent inhibition of GH47 α-D-mannosidases through a bump–hole strategy” (Chemical Science, 2023).
Where two headings read alike, the source gives them in different places.

Target: T1, MAN2C1 (Homo sapiens, UniProt Q9NTJ4)
T1 construct: expressed in transfected cells
T1 sequence (Q9NTJ4 1-1040): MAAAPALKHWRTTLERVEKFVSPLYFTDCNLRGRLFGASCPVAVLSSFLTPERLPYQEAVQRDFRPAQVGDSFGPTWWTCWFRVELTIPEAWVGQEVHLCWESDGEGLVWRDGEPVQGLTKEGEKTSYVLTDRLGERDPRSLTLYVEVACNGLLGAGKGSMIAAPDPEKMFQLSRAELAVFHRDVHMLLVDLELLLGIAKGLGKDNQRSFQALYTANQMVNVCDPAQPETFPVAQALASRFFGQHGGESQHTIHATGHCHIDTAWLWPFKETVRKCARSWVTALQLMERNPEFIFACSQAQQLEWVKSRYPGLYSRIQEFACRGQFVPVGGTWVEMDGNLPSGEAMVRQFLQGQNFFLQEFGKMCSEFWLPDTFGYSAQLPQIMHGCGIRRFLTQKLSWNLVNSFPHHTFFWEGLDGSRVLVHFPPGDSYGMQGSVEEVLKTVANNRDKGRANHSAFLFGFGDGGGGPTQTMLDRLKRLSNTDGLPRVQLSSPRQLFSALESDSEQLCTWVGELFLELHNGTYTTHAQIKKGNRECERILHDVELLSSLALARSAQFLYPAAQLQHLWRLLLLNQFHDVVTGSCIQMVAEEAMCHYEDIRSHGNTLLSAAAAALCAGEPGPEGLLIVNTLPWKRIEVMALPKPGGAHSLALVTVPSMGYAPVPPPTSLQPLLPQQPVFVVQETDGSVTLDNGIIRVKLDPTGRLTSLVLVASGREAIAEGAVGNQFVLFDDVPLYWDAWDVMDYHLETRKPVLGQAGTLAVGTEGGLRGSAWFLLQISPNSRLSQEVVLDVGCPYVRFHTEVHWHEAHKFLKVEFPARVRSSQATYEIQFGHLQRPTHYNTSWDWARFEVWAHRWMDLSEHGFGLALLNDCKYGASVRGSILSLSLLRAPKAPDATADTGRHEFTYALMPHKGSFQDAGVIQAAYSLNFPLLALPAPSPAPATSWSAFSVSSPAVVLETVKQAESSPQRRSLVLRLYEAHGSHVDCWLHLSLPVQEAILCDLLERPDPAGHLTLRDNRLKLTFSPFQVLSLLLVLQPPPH
Assay: 4-MU-α-man activity assay in overexpressed cell lysates
Assay type: biochemical
Text: Finally, selectivity versus a panel of related exo-mannosidases was investigated. We first tested inhibition against all five human GH38 retaining α-mannosidases in overexpressed cell lysates using 4-methylumbelliferyl-α-mannoside (4-MU-α-man): Golgi mannosidase II and IIx (MAN2A1 and MAN2A2), cytosolic MAN2C1 and lysosomal MAN2B1 and MAN2B2. This α-mannosidase family follows a different conformational itinerary than GH47: ^0S2 → B2,5 → ^1S5.[35] […] Of note, the presence of cobalt has been associated with conformational changes in the active site of some GH38 α-mannosidases, which might affect the binding interaction with inhibitors.[36] Nevertheless, additional research is required to explore which specific metal ion is present in the MAN2C1 active site in its in vivo state.
Trans-Cyclosulfamidate Cyclitols Males et al.
2.3 GH38 α-mannosidases and GH2 β-mannosidase inhibition studies
All chemicals were of analytical grade and purchased from Sigma-Aldrich unless stated otherwise.
Optimal stability of cell homogenates and enzyme working stocks was ensured by preparation and temporary storage on ice. Cell homogenates were prepared and used on the same day. Protein concentrations were quantified using the Pierce BCA Protein Assay Kit (ThermoFisher). Protein samples were measured in clear flat-bottom polystyrene 96 well microplates (Greiner Bio-One) using a EMax Plus Microplate Reader (Molecular Devices). Activity measurements of human GH38 α-mannosidases and bacterial β-mannosidase BtMan2A were performed in black flat-bottom polystyrene 96 wells microplates (Greiner Bio-One) and total fluorescence was measured using a Perkin Elmer LS-55 fluorescence spectrometer at wavelengths λex = 366 and λem = 445 nm, with the signal optimized for medium gain readings. The fluorescence values of each enzyme sample were corrected for the background signal of a blank sample containing no enzyme. In the case of IC50 determinations, values were normalized against a control sample containing enzyme without added inhibitor. For a single experiment, three separate curves were fitted from a technical triplicate by setting the inhibitor concentration in µM against the normalized response using GraphPad Prism 8.4.2 software. The Prism functions ‘[inhibitor] versus normalized response’ and ‘[inhibitor] versus normalized response -- variable slope’ were compared for each curve using the Akaike’s Information Criterion method to select the preferred model. Reported IC50 values are mean ± standard deviation from a biological […]
General cell culture protocol
HEK293T cells were grown to confluency at 37 °C under a 5% CO2 atmosphere in Dulbecco’s Modified Eagle’s Medium (DMEM) with a high glucose concentration (Capricorn Scientific, DMEM-HPXA) that was supplemented with 10% fetal calf serum, 0.1% (w/v) penicillin/streptomycin and 1% (v/v) Glutamax. Cells were passaged twice a week to new round polystyrene (PS) tissue culture dishes (Sarstedt) by detachment off the former culture plates by careful pipetting. To prepare cell pellets for activity measurements, plates were grown to confluency and harvested in phosphate buffered saline (PBS). After centrifugation at 1500 rpm for 5 min, the remaining PBS was aspirated and the cells were resuspended in fresh PBS. The concentration of the resulting suspension was then counted using a TC20 automated cell counter (BioRad). Aliquots were centrifuged at 2000 rpm for 5 min and the resulting cell pellets were stored at -80 °C until further use.
4-MU activity assay protocol for human GH38 α-mannosidases
HEK293T cells stably overexpressing human GH38 α-mannosidases MAN2A1, MAN2A2, MAN2B1, MAN2B2 and MAN2C1 were prepared as previously described[11] and were kindly donated by Dr. C. L.
Kuo. Homogenates were prepared by sonicating cell pellets (Sonics VibraCell, 5x1 s with 30 s interval at 20% amplitude) in 150 mM McIlvain buffer of pH 5.5 (MAN2A1, MAN2A2), pH 4.5 (MAN2B1, MAN2B2) or pH 6.7 (MAN2C1) containing either 2 mM ZnCl2 (MAN2A1, MAN2A2, MAN2B1, MAN2B2) […]

**Q.** What does the source list for `O=S1(=O)N[C@@H]2[C@@H](O)[C@@H](O)[C@H](O)[C@@H](CO)[C@H]2O1` [compound 6, 1,6-trans-manno-cyclosulfamidate]?
**A.** IC50 (Co2+ (cobalt as the metal ion), read-out: IC50 (apparent)): 3.5 ± 1.2 µM; IC50 (Zn2+ (buffer supplemented with 1 mM ZnCl2 instead of CoCl2)): no IC50 value could be determined; IC50 (Zn2+ (buffer supplemented with 1 mM ZnCl2 instead of CoCl2), read-out: IC50): > 1000 µM
